The target in test [1] is dephosphorylated FGFR1 (SEQ ID NO: 1, amino acids 458 to 765) (Homo sapiens (Human), UniProt P11362). Briefly: FGFR enzyme binding assay (HTRF tracer displacement), FGFR1. As to conditions: 5 nM dephosphorylated FGFR1, average of multiple determinations if made. In a few lines: (§1)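 Compounds were tested for displacement of a tracer from human FGFR kinase in a time-resolved FRET binding format. After 60 minutes at 22° C, signal was read at two wavelengths and converted to percent of control, normalised between untreated wells and 1 μM reference inhibitor.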
Chain of dephosphorylated FGFR1 (SEQ ID NO: 1, amino acids 458 to 765) (P11362 458-765): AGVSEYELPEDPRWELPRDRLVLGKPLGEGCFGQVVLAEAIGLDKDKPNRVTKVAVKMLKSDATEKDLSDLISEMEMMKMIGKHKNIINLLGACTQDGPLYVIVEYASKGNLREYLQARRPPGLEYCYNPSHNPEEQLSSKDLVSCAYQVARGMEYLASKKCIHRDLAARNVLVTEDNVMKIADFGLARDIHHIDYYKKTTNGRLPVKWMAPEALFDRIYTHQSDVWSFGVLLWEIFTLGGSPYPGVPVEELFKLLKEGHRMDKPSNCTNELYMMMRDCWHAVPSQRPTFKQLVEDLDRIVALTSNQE
A general note: TR-FRET usually uses a lanthanide donor and a delayed reading to cut background.

In test [2] the target is phosphorylated FGFR3 (SEQ ID NO: 5, amino acids 449 to 759) (Homo sapiens (Human), UniProt P22607). Description: FGFR enzyme binding assay (HTRF tracer displacement), FGFR3. As to conditions: 5 nM phosphorylated FGFR3, average of multiple determinations if made. In a few lines: as §1
Chain of phosphorylated FGFR3 (SEQ ID NO: 5, amino acids 449 to 759) (P22607 449-759): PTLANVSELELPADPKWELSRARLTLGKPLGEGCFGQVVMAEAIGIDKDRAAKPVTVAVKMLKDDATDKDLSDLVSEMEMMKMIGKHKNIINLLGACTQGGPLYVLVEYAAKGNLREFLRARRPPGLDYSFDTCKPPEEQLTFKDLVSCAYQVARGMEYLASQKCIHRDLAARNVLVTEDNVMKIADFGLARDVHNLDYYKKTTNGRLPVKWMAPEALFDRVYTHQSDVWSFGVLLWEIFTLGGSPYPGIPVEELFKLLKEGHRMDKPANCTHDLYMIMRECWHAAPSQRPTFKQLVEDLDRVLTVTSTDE
The target of test [3] is recombinant human FGFR1 catalytic domain (amino acids 308-731) (Homo sapiens (Human), UniProt P11362). Description: FGFR1 enzyme activity assay (LanthaScreen TR-FRET). Type of test: biochemical. Particulars: 20 min incubation at 22° C., average of multiple determinations if made, read-out: FGFR1 Enz FRET IC50. The method, boiled down:
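His-tagged FGFR1 kinase domain with 100 nM Alexa Fluor 647-poly-GT peptide and ATP in pH 7.5 HEPES/MgCl2 buffer with 2% DMSO, 20 min at 22 °C. Quenched with EDTA plus 2 nM Eu-PY20 antibody and read after 60 min. IC50 comes from a 4-parameter fit of percent of control.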

Test [4] has as its target T1, HEK-293 cells transfected with dox-inducible human wild type FGFR3 (Homo sapiens (Human), UniProt P22607). Briefly: FGFR3 pFGFR cell assay (ELISA). Type of test: cell-based. As to conditions: HEK-293 dox-inducible FGFR3, 1 hour compound, 100 ng/ml FGF-acidic. The method, boiled down:
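Doxycycline-induced (1 μg/ml) HEK-293 cells expressing wild-type human FGFR3, treated 1 h with compound (1:3 series, top final 5 μM), then stimulated 5 min with 100 ng/ml FGF-acidic. Phospho-FGFR3 measured by ELISA (total FGFR3 capture, phosphotyrosine detection, OD 450 nm); IC50 from 4-parameter fit of POC values.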
(In general: In an ELISA, binding on a coated surface is turned into a signal by an enzyme label.)

Test [5] deals with T1, HEK-293 cells transfected with dox-inducible human wild type FGFR3. Briefly: FGFR3 pERK cell assay. Type of test: cell-based. As to conditions: HEK-293 dox-inducible FGFR3, 1 hour compound, 100 ng/ml FGF-acidic; maximum concentration 5 μM. The method, boiled down:
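Doxycycline-induced cells preincubated 1 h at 37 °C with compound (1:3 dilutions, top 5 μM final), then stimulated 5 min with 100 ng/ml FGF-acidic. Lysate phospho-ERK1/2 measured by MSD sandwich assay; IC50 at 50 POC from 4-parameter fit, normalised to no-compound and control-compound wells.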

The record followed here is patent US12180207B2 (ARRAY BIOPHARMA INC., priority 2018, dated 2024).

Chain of recombinant human FGFR1 catalytic domain (amino acids 308-731) (P11362 other isoform, or with tags, fused parts or gaps): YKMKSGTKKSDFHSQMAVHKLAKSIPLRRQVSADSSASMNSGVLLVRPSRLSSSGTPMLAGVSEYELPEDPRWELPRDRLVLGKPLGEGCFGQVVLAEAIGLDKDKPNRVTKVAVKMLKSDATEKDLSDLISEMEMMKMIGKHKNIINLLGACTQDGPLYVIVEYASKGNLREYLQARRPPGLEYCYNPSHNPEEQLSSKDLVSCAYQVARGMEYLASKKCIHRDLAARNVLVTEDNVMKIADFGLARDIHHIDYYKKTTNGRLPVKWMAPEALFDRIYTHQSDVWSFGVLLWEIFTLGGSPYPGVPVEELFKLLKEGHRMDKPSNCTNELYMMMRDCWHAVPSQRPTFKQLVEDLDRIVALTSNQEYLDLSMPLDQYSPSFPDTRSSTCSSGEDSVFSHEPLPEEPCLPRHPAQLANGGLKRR
T1 sequence (P22607 23-806): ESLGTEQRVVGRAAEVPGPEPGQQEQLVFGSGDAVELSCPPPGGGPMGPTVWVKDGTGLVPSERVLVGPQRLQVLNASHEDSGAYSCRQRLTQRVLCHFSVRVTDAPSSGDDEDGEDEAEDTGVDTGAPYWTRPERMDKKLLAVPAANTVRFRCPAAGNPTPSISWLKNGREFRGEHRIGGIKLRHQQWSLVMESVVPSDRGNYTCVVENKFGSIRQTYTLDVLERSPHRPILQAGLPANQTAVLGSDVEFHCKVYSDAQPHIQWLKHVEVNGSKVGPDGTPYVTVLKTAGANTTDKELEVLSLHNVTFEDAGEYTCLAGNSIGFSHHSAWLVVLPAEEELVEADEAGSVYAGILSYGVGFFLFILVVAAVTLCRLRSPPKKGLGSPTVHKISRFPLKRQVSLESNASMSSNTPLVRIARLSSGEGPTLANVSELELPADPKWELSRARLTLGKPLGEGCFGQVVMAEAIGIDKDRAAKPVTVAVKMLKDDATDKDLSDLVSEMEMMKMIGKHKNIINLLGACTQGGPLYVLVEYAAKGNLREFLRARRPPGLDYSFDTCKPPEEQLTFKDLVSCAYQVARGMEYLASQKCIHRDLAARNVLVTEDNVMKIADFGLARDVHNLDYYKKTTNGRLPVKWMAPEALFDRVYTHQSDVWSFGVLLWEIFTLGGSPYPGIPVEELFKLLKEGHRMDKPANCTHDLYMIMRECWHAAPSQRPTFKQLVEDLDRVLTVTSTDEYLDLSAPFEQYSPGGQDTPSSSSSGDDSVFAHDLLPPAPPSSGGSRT

A word on the IC50: it is the point on the concentration scale where inhibition reaches its midpoint. For the molecule `C=CC(=O)N1CC(C(=O)N2CCC(n3cnc(-c4cc(OC)c5c(C#N)cnn5c4)c3)CC2)C1` [Example 98, 6-(1-(1-(1-acryloylazetidine-3-carbonyl)piperidin-4-yl)-1H-imidazol-4-yl)-4-methoxypyrazolo[1,5-a]pyridine-3-carbonitrile], the IC50 in test [1] worked out at 0.218 µM; in test [2], 0.019 µM; in test [3], 0.022 µM; in test [4], 1.13 µM.

On to `C=CC(=O)N1CC(C(=O)N2CCN(c3ccc(-c4cc(OC)c5c(C#N)cnn5c4)cc3)CC2)C1` [Example 100, 6-(4-(4-(1-acryloylazetidine-3-carbonyl)piperazin-1-yl)phenyl)-4-methoxypyrazolo[1,5-a]pyridine-3-carbonitrile], for which the concentration for half-maximal inhibition (IC50) in test [1] was 0.057 µM; in test [2], 0.005 µM; in test [3] it was 0.009 µM; in test [5] it was 0.021 µM; in test [4], 0.021 µM.

As for `C=CC(=O)N1CC(C(=O)N2CCC(c3ccc(-c4cc(OC)c5c(C#N)cnn5c4)cc3)CC2)C1` [Example 101, 6-(4-(1-(1-acryloylazetidine-3-carbonyl)piperidin-4-yl)phenyl)-4-methoxypyrazolo[1,5-a]pyridine-3-carbonitrile], the IC50 in test [1] stood at 0.042 µM; in test [2] it was 0.003 µM; in test [3], 0.013 µM; in test [4], 0.069 µM.

Take `C=CC(=O)N1CC(C)(C(=O)N2CCC(n3cc(-c4cc(OC)c5c(Cl)cnn5c4)cn3)CC2)C1` [Example 123, 1-(3-(4-(4-(3-chloro-4-methoxypyrazolo[1,5-a]pyridin-6-yl)-1H-pyrazol-1-yl)piperidine-1-carbonyl)-3-methylazetidin-1-yl)prop-2-en-1-one]: the IC50 in test [1] was 0.221 µM; in test [2], 0.022 µM; in test [3], 0.04 µM; in test [4], 0.057 µM.

Take `C=CC(=O)N1CC(OC)(C(=O)N2CCC(n3cc(-c4cc(OC)c5c(Cl)cnn5c4)cn3)CC2)C1` [Example 124, 1-(3-(4-(4-(3-chloro-4-methoxypyrazolo[1,5-a]pyridin-6-yl)-1H-pyrazol-1-yl)piperidine-1-carbonyl)-3-methoxyazetidin-1-yl)prop-2-en-1-one]: the IC50 in test [1] was found to be 0.119 µM; in test [2], 0.009 µM; in test [3], 0.038 µM; in test [4], 0.024 µM.

As to `C=CC(=O)N1CC(C(=O)N2CCC(n3cc(-c4cc(OC5CCC5)c5c(C#N)cnn5c4)cn3)CC2)C1` [Example 125, 6-(1-(1-(1-acryloylazetidine-3-carbonyl)piperidin-4-yl)-1H-pyrazol-4-yl)-4-cyclobutoxypyrazolo[1,5-a]pyridine-3-carbonitrile], the IC50 was 0.013 µM in test [1], 0.002 µM in test [2], 0.004 µM in test [3] and 0.009 µM in test [4].

On to `C=CC(=O)N1CC(C(=O)N2CCC(n3cc(-c4cc(OCC)c5c(C#N)cnn5c4)cn3)CC2)C1` [Example 126, 6-(1-(1-(1-acryloylazetidine-3-carbonyl)piperidin-4-yl)-1H-pyrazol-4-yl)-4-ethoxypyrazolo[1,5-a]pyridine-3-carbonitrile], for which the IC50 was found to be 0.147 µM in test [1], 0.011 µM in test [2], 0.013 µM in test [3] and 0.02 µM in test [4].

As to `C=CC(=O)N1CC(C(=O)N2CCC(n3cc(-c4cc(OC(C)C)c5c(C#N)cnn5c4)cn3)CC2)C1` [Example 127, 6-(1-(1-(1-acryloylazetidine-3-carbonyl)piperidin-4-yl)-1H-pyrazol-4-yl)-4-isopropoxypyrazolo[1,5-a]pyridine-3-carbonitrile], the IC50 in test [1] came out at 0.059 µM; in test [2] it was 0.01 µM; in test [3] it was 0.007 µM; in test [4], 0.018 µM.

As to `C=CC(=O)N1CC(C(=O)N2CCC(n3cc(-c4cc(OCC(C)C)c5c(C#N)cnn5c4)cn3)CC2)C1` [Example 128, 6-(1-(1-(1-acryloylazetidine-3-carbonyl)piperidin-4-yl)-1H-pyrazol-4-yl)-4-isobutoxypyrazolo[1,5-a]pyridine-3-carbonitrile], the IC50 in test [1] turned out to be 0.038 µM; in test [2], 0.006 µM; in test [3], 0.007 µM; in test [4], 0.028 µM.

Consider `C=CC(=O)N1CC(C(=O)N2CCC(n3cc(-c4cc(C(C)C)c5c(C#N)cnn5c4)cn3)CC2)C1` [Example 129, 6-(1-(1-(1-acryloylazetidine-3-carbonyl)piperidin-4-yl)-1H-pyrazol-4-yl)-4-isopropylpyrazolo[1,5-a]pyridine-3-carbonitrile], for which the IC50 in test [1] is 0.271 µM; in test [2], 0.034 µM; in test [3], 0.014 µM; in test [4] it was 0.023 µM.

For the molecule `C=CC(=O)N1CC(C(=O)N2CCC(n3cc(-c4cc(-c5ccc(NC(=O)C6CC6)cc5F)c5c(C#N)cnn5c4)cn3)CC2)C1` [Example 130, N-(4-(6-(1-(1-(1-acryloylazetidine-3-carbonyl)piperidin-4-yl)-1H-pyrazol-4-yl)-3-cyanopyrazolo[1,5-a]pyridin-4-yl)-3-fluorophenyl)cyclopropane-carboxamide], the IC50 in test [1] came to 0.007 µM; in test [2], 0.003 µM; in test [3], 0.003 µM; in test [4], 0.295 µM.

With `C=CC(=O)N1CC(C(=O)N2CCC(n3cc(-c4cc(-c5ccccc5F)c5c(C#N)cnn5c4)cn3)CC2)C1` [Example 131, 6-(1-(1-(1-acryloylazetidine-3-carbonyl)piperidin-4-yl)-1H-pyrazol-4-yl)-4-(2-fluorophenyl)pyrazolo[1,5-a]pyridine-3-carbonitrile], the IC50 in test [1] turned out to be 0.007 µM; in test [2] it was 0.001 µM; in test [3], 0.009 µM; in test [4], 0.015 µM.

Consider `C=CC(=O)N1CC(CN2CCC(n3cc(-c4cc(OC)c5c(C#N)cnn5c4)cn3)CC2)C1` [Example 132, 6-(1-(1-((1-acryloylazetidin-3-yl)methyl)piperidin-4-yl)-1H-pyrazol-4-yl)-4-methoxypyrazolo[1,5-a]pyridine-3-carbonitrile], for which the IC50 in test [1] was 0.071 µM; in test [2], 0.007 µM; in test [3], 0.014 µM; in test [4] it was 0.031 µM.

In the case of `COc1cc(-c2cnn(C3CCN(C(=O)C4CN(C(=O)/C=C/CN(C)C)C4)CC3)c2)cn2ncc(C#N)c12` [Example 143, (E)-6-(1-(1-(1-(4-(dimethylamino)but-2-enoyl)azetidine-3-carbonyl)piperidin-4-yl)-1H-pyrazol-4-yl)-4-methoxypyrazolo [1,5-a]pyridine-3-carbonitrile], the IC50 in test [1] stood at 0.033 µM; in test [2], 0.002 µM; in test [3] it was 0.01 µM; in test [4], 0.527 µM.

As for `COc1cc(-c2cnn(C3CCN(C(=O)C4CN(C(=O)/C=C/CN5CCCCC5)C4)CC3)c2)cn2ncc(C#N)c12` [Example 145, (E)-4-methoxy-6-(1-(1-(1-(4-(piperidin-1-yl)but-2-enoyl)azetidine-3-carbonyl)piperidin-4-yl)-1H-pyrazol-4-yl)pyrazolo[1,5-a]pyridine-3-carbonitrile], the IC50 in test [1] was 0.06 µM; in test [2], 0.004 µM; in test [3], 0.004 µM; in test [4], 0.257 µM.

Consider `COc1cc(-c2cnn(C3CCN(C(=O)C4CN(C(=O)/C=C/CN(C)C)C4)CC3)c2)cn2ncc(Cl)c12` [Example 174], for which the IC50 in test [1] came out at 0.194 µM; in test [2], 0.012 µM; in test [3] it was 0.016 µM; in test [4], 0.139 µM.

`COc1cc(-c2cnn(C3CCN(CC4CN(C(=O)/C=C/CN5CCCCC5)C4)CC3)c2)cn2ncc(C#N)c12` [Example 175, (E)-4-methoxy-6-(1-(1-((1-(4-(piperidin-1-yl)but-2-enoyl)azetidin-3-yl)methyl)piperidin-4-yl)-1H-pyrazol-4-yl)pyrazolo[1,5-a]pyridine-3-carbonitrile]: the IC50 in test [1] turned out to be 0.09 µM; in test [2], 0.008 µM; in test [3], 0.004 µM; in test [4] it was 0.052 µM.

For `C=CC(=O)N(C)c1ccc(C(=O)N2CCC(n3cc(-c4cc(OC)c5c(C#N)cnn5c4)cn3)CC2)cc1` [Example 178, N-(4-(4-(4-(3-cyano-4-methoxypyrazolo[1,5-a]pyridin-6-yl)-1H-pyrazol-1-yl)piperidine-1-carbonyl)phenyl)-N-methylacrylamide], the IC50 in test [1] was 0.061 µM; in test [2], 0.008 µM; in test [3], 0.014 µM; in test [4], 0.044 µM.
